System: KK-Ay/Ta Jc1 mice
Test: Body weight increase per ingested feed amount in obesity type 2 diabetic model mice
Assay type: in vivo
Details: KK-Ay/Ta Jc1 male mice, 1% by weight in CE-2 feed; for Body Weight Increase/ Ingested Feed Amount (%): free intake, initial day to 17th day, mean value ± standard error (n=5); for body weight increase per ingested feed amount as compared with group 1 (CE-2 feed only): 17 days, t-test
Excerpt: KK-Ay/Ta Jc1 mice (Clea Japan, Inc.; male; six weeks age)(15 mice) of an obesity type 2 diabetic model were divided into three groups each comprising five and named group 1 to group 3.
The mice of the groups 1 to 3 were made free to take feed and water. A commercially available feed CE-2 (manufactured by Clea Japan, Inc.) was ingested to the mice of group 1. CE-2 to which 1% by weight of trans-4-hydroxy-L-proline (manufactured by Kyowa Hakko Kogyo; hereinafter, abbreviated as the hydroxyproline) was added was ingested to the mice of group 2. CE-2 to which 1% by weight of trans-N-acetyl-4-hydroxy-L-proline (manufactured by Kyowa Hakko Kogyo; hereinafter, abbreviated as the N-acetylhydroxyproline) was added was ingested to the mice of group 3.
Body weight on the initial day of the test and on the 17th day and amount of the ingested feed from the initial day of the test to the 17th day were measured. As an index for the progress of obesity, a body weight increase during the test period for the total ingested feed amount during the test period was calculated for each mouse. The value was shown in terms of mean value±standard error (n=5) and statistic ratio of risk (p value) was determined by a t-test.

SMILES	Body Weight Increase/ Ingested Feed Amount (%)	body weight increase per ingested feed amount as compared with group 1 (CE-2 feed only)
CC(=O)N1C[C@H](O)C[C@H]1C(=O)O [N-acetylhydroxyproline, trans-N-acetyl-4-hydroxy-L-proline]	4.2 ± 0.6 %	significantly low
O=C(O)[C@@H]1C[C@@H](O)CN1 [hydroxyproline, trans-4-hydroxy-L-proline]	5.8 ± 0.4%	tended to show low value
